Target: T1, human parathyroid cell Ca2+ receptor (hPCaR) (Homo sapiens, UniProt P41180)
T1 construct: expressed in transfected cells
T1 sequence (P41180 20-1078): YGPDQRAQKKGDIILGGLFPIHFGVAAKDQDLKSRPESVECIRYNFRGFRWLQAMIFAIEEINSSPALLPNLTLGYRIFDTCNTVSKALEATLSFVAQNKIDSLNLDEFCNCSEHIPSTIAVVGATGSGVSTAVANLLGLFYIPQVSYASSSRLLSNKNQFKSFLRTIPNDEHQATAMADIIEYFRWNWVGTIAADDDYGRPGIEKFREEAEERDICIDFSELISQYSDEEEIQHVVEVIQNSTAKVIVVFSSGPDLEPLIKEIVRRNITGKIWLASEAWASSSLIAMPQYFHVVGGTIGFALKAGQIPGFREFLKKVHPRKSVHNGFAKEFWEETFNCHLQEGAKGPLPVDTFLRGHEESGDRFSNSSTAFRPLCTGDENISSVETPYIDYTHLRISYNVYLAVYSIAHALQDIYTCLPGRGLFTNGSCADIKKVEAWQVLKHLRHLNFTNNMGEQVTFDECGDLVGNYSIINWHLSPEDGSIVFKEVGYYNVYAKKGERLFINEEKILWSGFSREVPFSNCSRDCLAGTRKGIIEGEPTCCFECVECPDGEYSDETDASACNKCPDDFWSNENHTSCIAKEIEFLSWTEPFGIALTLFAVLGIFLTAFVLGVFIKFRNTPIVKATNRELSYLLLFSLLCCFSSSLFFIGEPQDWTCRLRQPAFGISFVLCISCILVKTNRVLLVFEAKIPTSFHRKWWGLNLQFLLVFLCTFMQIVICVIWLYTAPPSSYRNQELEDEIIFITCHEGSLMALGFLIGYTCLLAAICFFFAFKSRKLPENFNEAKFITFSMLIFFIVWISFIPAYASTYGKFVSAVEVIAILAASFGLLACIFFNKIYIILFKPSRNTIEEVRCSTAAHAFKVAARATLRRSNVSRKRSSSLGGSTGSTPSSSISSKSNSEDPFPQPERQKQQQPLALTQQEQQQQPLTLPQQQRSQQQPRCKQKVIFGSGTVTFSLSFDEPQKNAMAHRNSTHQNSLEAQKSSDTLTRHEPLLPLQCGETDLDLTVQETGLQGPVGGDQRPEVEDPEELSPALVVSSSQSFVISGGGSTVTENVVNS
Test: [Ca2+]i fluorescence assay in HEK 293 4.0-7 cells expressing hPCaR
Format: cell-based
Settings: buffer with 1 mM CaCl2
Protocol: The activities of the compounds of the present invention on calcium receptors were measured. In one embodiment, the measurement was performed in accordance with the method described in Example 4 of Nemeth et al., PCT/US95/13704 (International Publication No. WO96/12697) herein incorporated by reference.
A 4.0-kb NotI-HindIII fragment of the human parathyroid cell Ca^2+ receptor (hPCaR) cDNA was subcloned into the mammalian expression vector pCEP4 (Invitrogen) containing the hygromycin-resistant gene as a selectable marker. This plasmid was transfected into HEK 293 cells by calcium phosphate precipitation. Transfected cells were grown in Dulbecco's modified Eagle's medium containing 10% fetal bovine serum and hygromycin (200 μg/mL). Hygromycin-resistant colonies were subcloned and assayed for hPCaR mRNA by solution hybridization using a ^32P-labeled RNA probe complementary to the (4.0 kb) hPCaR sequence (Garrett, et al., J. Biol. Chem. 270, 12919-12925 (1995)). Clone 7 was used to assess the effects of compounds on [Ca^2+]i. This stably transfected cell line was termed HEK 293 4.0-7. For measurements of [Ca^2+]i, the cells were recovered from tissue culture flasks by brief treatment with Versene (Invitrogen; Containing 0.2 g/L EDTA.4Na in phosphate-buffered saline) and then seeded in collagen coated 384-well plates (BD Biosciences) at 20K cells per well in the growth media (same as above). Cells were grown in 37c TC incubator overnight. Then, the media was discarded and cells were loaded with 1× dye from Ca^2+ Assay Kit I (BD Biosciences) in parathyroid cell buffer (126 mM NaCl, 4 mM KCl, 1 mM MgSO4, 0.7 mM K2HPO4/KH2PO4, 20 mM HEPES.NaOH (pH 7.45)) containing 0.5% BSA and 1 mM CaCl2. Cells were loaded at room temperature for 90 minutes. Each test compound was added to the cells and the fluorescence was recorded by using excitation and emission wavelengths of 485 and 530 nm, respectively.

Row | SMILES | EC50 [nM]
1 | CC(C)(C)OC(=O)N1CCC(C(=O)NCCN(CCC(c2ccccc2)c2ccccc2)C(=O)Nc2nc3ccccc3s2)CC1 [Example 165, 4-{2-[3-Benzothiazol-2-yl-1-(3,3-diphenyl-propyl)-ureido]-ethylcarbamoyl}-piperidine-1-carboxylic acid tert-butyl ester] | 100 to 1000
2 | C[C@@H]1CN(C(=O)CCN(CCC(c2ccccc2)c2ccccc2)C(=O)Nc2nc3ccccc3s2)CCN1 [Example 125, (R)-3-(benzo[d]thiazol-2-yl)-1-(3,3-diphenylpropyl)-1-(3-(3-methylpiperazin-1-yl)-3-oxopropyl)urea] | 1000 to 5000
3 | O=C(Nc1nc2ccccc2s1)N(CCNC1CCOCC1)CCC(c1ccccc1)c1ccccc1 [Example 156, 3-Benzothiazol-2-yl-1-(3,3-diphenyl-propyl)-1-[2-(tetrahydro-pyran-4-ylamino)-ethyl]-urea] | 1000 to 5000
4 | NC(=O)CCCN(CCC(c1ccccc1)c1ccccc1)C(=O)Nc1nc2ccccc2s1 [Example 80, 1-(4-amino-4-oxobutyl)-3-(benzo[d]thiazol-2-yl)-1-(3,3-diphenylpropyl)urea] | < 100
5 | O=C(Nc1nc2ccccc2s1)N(CCN[C@@H]1CCCNC1)CCC(c1ccccc1)c1ccccc1 [Example 145, (R)-3-(benzo[d]thiazol-2-yl)-1-(3,3-diphenylpropyl)-1-(2-(piperidin-3-ylamino)ethyl)urea] | < 100
6 | CS(=O)(=O)Nc1ccc(-c2nc(NC(=O)N(CCCO)CCC(c3ccccc3)c3ccccc3)sc2Cl)cc1 [Example 134, 3-(5-chloro-4-(4-(methylsulfonamido)phenyl)thiazol-2-yl)-1-(3,3-diphenylpropyl)-1-(3-hydroxypropyl)urea] | < 100
7 | O=C(CCCN(CCC(c1ccccc1)c1ccccc1)C(=O)Nc1nc(-c2ccccc2)cs1)N[C@@H]1CCCNC1 [Example 76, (R)-1-(3,3-diphenylpropyl)-1-(4-oxo-4-(piperidin-3-ylamino)butyl)-3-(4-phenylthiazol-2-yl)urea] | < 100
8 | C[C@@H]1CN(C(=O)CCCN(CCC(c2ccccc2)c2ccccc2)C(=O)Nc2nc(-c3ccccc3)cs2)CCN1 [Example 99, (R)-1-(3,3-diphenylpropyl)-1-(4-(3-methylpiperazin-1-yl)-4-oxobutyl)-3-(4-phenylthiazol-2-yl)urea] | 100 to 1000
9 | O=C1CC[C@@H](NCCN(CCC(c2ccccc2)c2ccccc2)C(=O)Nc2nc3ccccc3s2)CN1 [Example 144, (R)-3-(benzo[d]thiazol-2-yl)-1-(3,3-diphenylpropyl)-1-(2-(6-oxopiperidin-3-ylamino)ethyl)urea] | < 100
10 | COc1ccc(CNCCN(CCC(c2ccccc2)c2ccccc2)C(=O)Nc2nc3ccccc3s2)cn1 [Example 154, 3-Benzothiazol-2-yl-1-(3,3-diphenyl-propyl)-1-{2-[(6-methoxy-pyridin-3-ylmethyl)amino]-ethyl}-urea] | 100 to 1000
11 | O=C(CCCN(CCC(c1ccccc1)c1ccccc1)C(=O)Nc1nc(-c2ccccc2)cs1)N[C@H]1CCCNC1 [Example 78, (S)-1-(3,3-diphenylpropyl)-1-(4-oxo-4-(piperidin-3-ylamino)butyl)-3-(4-phenylthiazol-2-yl)urea] | < 100
12 | O=C(CCN(CCC(c1ccccc1)c1ccccc1)C(=O)Nc1nc2ccccc2s1)N1CCOCC1 [Example 103, 3-(benzo[d]thiazol-2-yl)-1-(3,3-diphenylpropyl)-1-(3-morpholino-3-oxopropyl)urea] | 100 to 1000
13 | CCNC(=O)CCCN(CCC(c1ccccc1)c1ccccc1)C(=O)Nc1nc2ccccc2s1 [Example 85, 3-(benzo[d]thiazol-2-yl)-1-(3,3-diphenylpropyl)-1-(4-(ethylamino)-4-oxobutyl)urea] | < 100
14 | CS(=O)(=O)Nc1ccc(-c2csc(NC(=O)N(CCCC(=O)NC3CCNCC3)CCC(c3ccccc3)c3ccccc3)n2)cc1 [Example 70, 1-(3,3-diphenylpropyl)-3-(4-(4-(methylsulfonamido)phenyl)thiazol-2-yl)-1-(4-oxo-4-(piperidin-4-ylamino)butyl)urea] | < 100
15 | O=C(CCCN(CCC(c1ccccc1)c1ccccc1)C(=O)Nc1nc2ccccc2s1)NC1CCCCC1 [Example 97, 3-(benzo[d]thiazol-2-yl)-1-(4-(cyclohexylamino)-4-oxobutyl)-1-(3,3-diphenylpropyl)urea] | 100 to 1000
16 | O=C(CCCN(CCC(c1ccccc1)c1ccccc1)C(=O)Nc1nc2ccccc2s1)NC1CCNCC1 [Example 75, 3-(benzo[d]thiazol-2-yl)-1-(3,3-diphenylpropyl)-1-(4-oxo-4-(piperidin-4-ylamino)butyl)urea] | < 100
17 | CC(C)N1CCN(C(=O)CCCN(CCC(c2ccccc2)c2ccccc2)C(=O)Nc2nc3ccccc3s2)CC1 [Example 118, 3-(benzo[d]thiazol-2-yl)-1-(3,3-diphenylpropyl)-1-(4-(4-isopropylpiperazin-1-yl)-4-oxobutyl)urea] | 100 to 1000
18 | C[C@H]1CN(C(=O)CCN(CCC(c2ccccc2)c2ccccc2)C(=O)Nc2nc3ccccc3s2)CCN1 [Example 115, (S)-3-(benzo[d]thiazol-2-yl)-1-(3,3-diphenylpropyl)-1-(3-(3-methylpiperazin-1-yl)-3-oxopropyl)urea] | 100 to 1000
19 | CS(=O)(=O)Nc1ccc(-c2nc(NC(=O)N(CCO)CCC(c3ccccc3)c3ccccc3)sc2Cl)cc1 [Example 133, 3-(5-chloro-4-(4-(methylsulfonamido)phenyl)thiazol-2-yl)-1-(3,3-diphenylpropyl)-1-(2-hydroxyethyl)urea] | < 100
20 | O=C1CC[C@@H](NCCN(CCC(c2ccccc2)c2ccccc2)C(=O)Nc2nc(-c3ccccc3)c(Cl)s2)CN1 [Example 147, (R)-3-(5-chloro-4-phenylthiazol-2-yl)-1-(3,3-diphenylpropyl)-1-(2-(6-oxopiperidin-3-ylamino)ethyl)urea] | < 100
21 | CC(=O)Nc1ccc(S(=O)(=O)NCCN(CCC(c2ccccc2)c2ccccc2)C(=O)Nc2nc3ccccc3s2)cc1 [Example 170, N-(4-{2-[3-Benzothiazol-2-yl-1-(3,3-diphenylpropyl)-ureido]-ethylsulfamoyl}-phenyl)acetamide] | 100 to 1000
22 | CC(C)(C)OC(=O)CN1CCC(NCCN(CCC(c2ccccc2)c2ccccc2)C(=O)Nc2nc3ccccc3s2)CC1 [Example 158, (4-{2-[3-Benzothiazol-2-yl-1-(3,3-diphenyl-propyl)-ureido]-ethylamino}-piperidin-1-yl)acetic acid tert-butyl ester] | 100 to 1000
23 | N#Cc1ccc(S(=O)(=O)NCCN(CCC(c2ccccc2)c2ccccc2)C(=O)Nc2nc3ccccc3s2)cc1 [Example 169, N-{2-[3-Benzothiazol-2-yl-1-(3,3-diphenyl-propyl)-ureido]-ethyl}-4-cyanobenzenesulfonamide] | 1000 to 5000
24 | CS(=O)(=O)Nc1ccc(-c2csc(NC(=O)N(CCC(=O)O)CCC(c3ccccc3)c3ccccc3)n2)cc1 [Example 113, 3-(1-(3,3-diphenylpropyl)-3-(4-(4-(methylsulfonamido)phenyl)thiazol-2-yl)ureido)propanoic acid] | 100 to 1000
25 | C[C@H]1CNCCN1C(=O)CCCN(CCC(c1ccccc1)c1ccccc1)C(=O)Nc1nc(-c2ccccc2)cs1 [Example 100, (S)-1-(3,3-diphenylpropyl)-1-(4-(2-methylpiperazin-1-yl)-4-oxobutyl)-3-(4-phenylthiazol-2-yl)urea] | 100 to 1000

From patent US20080125424A1, “Derivatives of urea and related diamines, methods for their manufacture, and uses therefor” (priority 2006, published 2008)
